Experiments:
[1] = test system: Rat mesangial cell line HBZY21; experiment: High glucose-induced rat mesangial cell proliferation (MTT reduction assay); assay type: cell-based; settings: 25 mM glucose, 24 h
Method: (§1) The mesangial cells in their exponential growth phase were cultured in 96-well plates at densities of 50000 cm^−2 in DMEM (5 mM glucose) at 37° C. in 5% CO2-95% air for 24 h. After pre-incubation in DMEM supplemented without fetal calf serum for 24 h, cells were then treated with various concentrations of glucose or AGEs for 24 h, 48 h, 72 h, 96 h, respectively.
According to the aboved method, after pre-incubation in DMEM supplemented without fetal calf serum for 24 h, cells were pretreated with 25 mM glucose, then were treated with various concentrations of reagents as indicated: normal glucose group (NG, 5.5 mM glucose); high glucose group (HG, 25 mM glucose); CAL group (CAL, 10, 100 nM); CAG group (CAG, 10, 100 nM); CAL+CAG group (CAL:CAG, 10 μg/ml:5 μg/ml, 5 μg/ml:10 μg/ml); Radix Astragali group (RA, 50 mg/ml aqueous extract). The plates were then incubated for 24 h. Proliferation was examined by MTT reduction assay. Experimental conditions were tested in sextuplicate (six wells of the 96-well plate per experimental condition).

[2] = test system: Rat mesangial cell line HBZY21; experiment: AGEs-induced rat mesangial cell proliferation (MTT reduction assay); assay type: cell-based; settings: 0.25 mg/ml AGEs, 24 h
Method: as §1
Cells were pretreated with 0.25 mg/mlAGEs, then were treated with various concentrations of reagents as indicated: normal glucose group (NG, 5.5 mM glucose); AGEs group (AGEs, 0.25 mg/mlAGEs); CAL group (CAL, 10, 100 nM); CAG group (CAG, 10, 100 nM); CAL+CAG group (CAL:CAG, 10 μg/ml:5 μg/ml, 5 μg/ml:10 μg/ml); Radix Astragali group (RA, 50 mg/ml aqueous extract). The plates were then incubated for 24 h. Proliferation was examined by MTT reduction assay. Experimental conditions were tested in sextuplicate (six wells of the 96-well plate per experimental condition).

rat mesangial cells [3] = experiment: Content of hydroxyproline in cell culture fluid of rat mesangial cells induced by high glucose; assay type: cell-based; settings: high glucose (25 mM)
Method: (§2) The treatment was the same as section 2.1 in Experiment 1. The measurement of matrix proliferation was measured by determinating the content of hydroxyproline and the expression of TGFβ-1.
(§3) The coverslips were pre-placed in the 24-wells plates to stick the cells. The cells were treated with various concentrations of reagents as indicated in Experiment 1. After the cells covered with coverslip, the supernatant was used for the determination of hydroxyproline and the slides of cells were treated with stained with immunohistochemical and PAS staining. The cells cultured without TGFβ-1 antibody were taken as the negative control.

rat mesangial cells [4] = experiment: ECM accrementition induced by high glucose (PAS staining, FIG. 1); assay type: cell-based; settings: 25 mM glucose
Method: wherein A: normal glucose group; B: high glucose group (25 mM); C: Radix Astragali group (RA, 50 mg/ml aqueous extract); D: CAL group (100 nM); E: CAL group (10 nM); F: CAL group (1 nM); G: CAG group (100 nM); H: CAG group (10 nM); I: CAG group (1 nM); J: CAL:CAG group (10 μg/ml:5 μg/ml). K: CAL:CAG group ([…]:10 μg/ml).
as §2, §3

TGFβ-1 = TGFβ-1 expression induced by high glucose (immunohistochemical staining, FIG. 2); assay type: cell-based, rat; settings: 25 mM glucose
Method: wherein A: normal glucose group; B: high glucose group (25 mM); C: negative control group; D: CAL group (100 nM); E: CAL group (10 nM); F: CAL group (1 nM); G: CAG group (100 nM); H: CAG group (10 nM); I: CAG group (1 nM); J: Radix Astragali group (RA, 50 mg/ml aqueous extract); K: CAL:CAG group (10 μg/ml:5 μg/ml); L: CAL:CAG group (5 μg/ml:10 μg/ml).
as §2, §3

[5] = test system: DN model Wistar rats induced by streptozotocin; experiment: STZ DN model rat: urinary production, total protein, microalbumin and creatinine; assay type: in vivo; settings: for Microalbumin: urine
Method: (§4) The DN model Wistar rats were randomly divided into […] with 10 rats each group as indicated: normal glucose group; model group; CAL group (6, 2, 0.7 mg/kg); CAG group (9, 3, 1 mg/kg); CAL+CAG group (CAL:CAG, 2 mg/kg:1 mg/kg, 1 mg/kg:2 mg/kg); Radix Astragali group (5 g/kg); Aminoguanidine group (100 mg/kg).
(§5) The drugs or sodium chloride were intragastric adminstrated once each day for 14 weeks. After the administration, the total volume urine was collected by metabolic cage. The contents of urinary production, total protein, microalbumin and creatinine were determinated, and the biochemical indicators in blood was determinated using automatic biochemical analyzer. Then the kideny with fog Hahn fixation was reserved for histopathological examination.

[6] = test system: DN model Wistar rats induced by streptozotocin; experiment: STZ DN model rat: serum biochemical indicators; assay type: in vivo; set-up: AGEs (advanced glycosylation end products): unit not given here
Method: as §4, §5

[7] = test system: DN model Wistar rats induced by streptozotocin; experiment: STZ DN model rat: pathohistological indicators; assay type: in vivo; settings: kidney
Method: as §4, §5

[8] = 0.7 mg/kg intragastric once each day for 14 weeks
[9] = 2 mg/kg intragastric once each day for 14 weeks
[10] = 6 mg/kg intragastric once each day for 14 weeks

In the case of `COc1ccc(-c2coc3cc(O)ccc3c2=O)cc1O` [CAL], the “OD value (λ = 490 nm)” value ([1]; 10 nM) is reported as 0.34 ± 0.02, the “OD value (λ = 490 nm)” value ([1]; 100 nM) is reported as 0.33 ± 0.05 and the “OD value (λ = 490 nm)” value ([2]; 10 nM) is reported as 0.42 ± 0.04. For the same molecule, the “OD value (λ = 490 nm)” value ([2]; 100 nM) was 0.34 ± 0.04, the “Content of hydroxyproline in cell culture fluid” value (rat mesangial cells [3]; 10 nM) was 7.15 ± 1.19 µg/mL and the “Content of hydroxyproline in cell culture fluid” value (rat mesangial cells [3]; 100 nM) was 6.65 ± 1.74 µg/mL. For the same molecule, the “ECM accrementition induced by high glucose” value (rat mesangial cells [4]) was “inhibited”, the “expression of TGFβ-1 induced by high glucose” value (TGFβ-1) was “inhibited” and the Urinary production [5, 8] was 59.9 ± 21.8 mL. For the same molecule, the Urine creatinine [5, 8] was 1.4 ± 0.6 mM, the Urine protein [5, 8] was 69.1 ± 20.4 mg and the Urinary production [5, 9] was 41.3 ± 16.8 mL. It also gave a Urine creatinine [5, 9] of 2.9 ± 1.2 mM, a Urine protein [5, 9] of 54.0 ± 17.4 mg and a Urinary production [5, 10] of 35.9 ± 22.2 mL. The Urine creatinine [5, 10] was 4.3 ± 2.0 mM, the Urine protein [5, 10] was 46.2 ± 21.3 mg and the Microalbumin [5, 8] was 1.57 ± 0.56 mg. The Microalbumin [5, 9] was 0.93 ± 0.55 mg, the Microalbumin [5, 10] was 0.92 ± 0.42 mg and the “AGEs (advanced glycosylation end products)” value (“AGEs” below) [6, 8] was 290 ± 59. The “BUN (Blood urea nitrogen)” value [6, 8] was 7.0 ± 1.0 mmol/L, the LDL [6, 8] was 1.91 ± 0.55 mmol/L and the “MDA (malonaldehyde)” value [6, 8] was 7.8 ± 2.3 nmol/mL. The “SOD (superoxide dismutase)” value [6, 8] was 498 ± 33 U/ml, the “Scr (serum creatinine)” value [6, 8] was 91.0 ± 31.1 µmol/L and the triglyceride [6, 8] was 3.23 ± 0.76 mmol/L. The “AGEs” value [6, 9] was 289 ± 56, the “BUN (Blood urea nitrogen)” value [6, 9] was 6.6 ± 1.2 mmol/L and the LDL [6, 9] was 1.51 ± 0.53 mmol/L. The “MDA (malonaldehyde)” value [6, 9] was 6.8 ± 1.9 nmol/mL, the “SOD (superoxide dismutase)” value [6, 9] was 513 ± 41 U/ml and the “Scr (serum creatinine)” value [6, 9] was 76.6 ± 24.5 µmol/L. For the same molecule, the triglyceride [6, 9] was 2.76 ± 0.80 mmol/L, the “AGEs” value [6, 10] was 281 ± 78 and the “BUN (Blood urea nitrogen)” value [6, 10] was 6.5 ± 1.5 mmol/L. For the same molecule, the LDL [6, 10] was 1.43 ± 0.36 mmol/L, the “MDA (malonaldehyde)” value [6, 10] was 6.8 ± 1.3 nmol/mL and the “SOD (superoxide dismutase)” value [6, 10] was 520 ± 29 U/ml. The “Scr (serum creatinine)” value [6, 10] was 75.2 ± 17.1 µmol/L, the triglyceride [6, 10] was 2.57 ± 0.80 mmol/L and the “ECM score (PAS %)” value [7, 8] was 33.1 ± 5.1%. For the same molecule, the Patho-score [7, 8] was 2.7 ± 1.0, the “TGFβ-1 (%)” value [7, 8] was 19.3 ± 6.3 % and the “ECM score (PAS %)” value [7, 9] was 29.8 ± 5.6 %. For the same molecule, the Patho-score [7, 9] was 1.8 ± 1.3, the “TGFβ-1 (%)” value [7, 9] was 17.6 ± 5.8 % and the “ECM score (PAS %)” value [7, 10] was 27.0 ± 5.5 %. For the same molecule, the Patho-score [7, 10] was 1.6 ± 1.1 and the “TGFβ-1 (%)” value [7, 10] was 8.8 ± 3.2 %.
